Source: patent US12312346B2, “Pyridopyrimidine compounds and methods of their use” (Tufts Medical Center, Inc., priority 2018, dated 2025)

Tests used:
Type in all cases: cell-based
[1] = system: mouse KO-MEFs (CDK6^−/− MEFs); assay: Cell cycle and cell number, CDK6-/- MEFs (KO-MEFs)
Experimental: FIG. 6E is a series of charts showing representative cell cycle profiles of mouse KO-MEFs treated with a vehicle (V), PD (0.5 μM), or compound GD at 1, 5, 10, and 20 μM for 6 days.
FIG. 6F is a histogram summarizing the cell cycle distribution in FIG. 6E. Data shown are mean±S.D. (n=6); *P<0.05 vs its vehicle control, t-test.
FIG. 6G is a bar graph summarizing the cell numbers of KO-MEFs treated with PD (0.5 μM) or compound GD at different doses for 6 days. Data shown are mean±S.D. (n=6); *P<0.05 vs its vehicle control, t-test.
HCl salt of 6-acetyl-5-methyl-2-((4-(piperazin-1-ylmethyl)thiazol-2-yl)amino)pyrido[2,3-d]pyrimidin-7(8H)-one (Compound GD) prepared in Example 1 was examined for its inhibitory activity in cancer cell lines and WT and CDK6^−/− mouse embryonic fibroblasts (MEFs) and stromal vascular fractions (SVFs). MEFs and SVFs are enriched with mesenchymal stem cells (MSC) and pre-adipocytes which can differentiate into a variety of cell types, including adipocytes.

[2] = system: phosphorylated pRB at SER-780 in HPAC-1 cells; assay: Immunoblot of phosphorylated pRB (SER-780) and PI staining, HPAC-1
Experimental: FIG. 5D is an image of a representative immunoblot showing the levels of phosphorylated pRB at SER-780 in HPAC-1 cells following treatment of these cells with a vehicle, PD, or compound GD for 24 hours. Tubulin was used as loading control.
(§1) Table 2: Experimental Procedures: sensitivity to CDK6 kinase activity inhibition was tested by incubating different cell lines in the presence of CDK6 inhibitor GD007/PBS for either 24 hours for detecting the status of pRB-780 phosphorylation, or 5 days for determining the effect of GD007 on cell proliferation. (1) By immunoblotting (WB), we will detect phospho-pRB-S^780, one of the substrates of CDK6 kinase; (2) By using FACS analysis, we will stain treated cells with Propidium Iodide (PI), a commonly used fluorescent intercalator, to measure the subpopulation of cell cycle to reveal any impact of CDK6 inhibition on cell proliferation; (3) cell numbers will be counted using hemocytometer.

[3] = system: differentiated SVF cells (white adipocyte formation); assay: Oil Red O staining of differentiated SVF cells with WAT inducers; conditions: vs vehicle
Experimental: FIG. 8A is an image of Oil Red O staining of differentiated SVF cells treated with a vehicle or compound GD (5 μM) in the presence of white adipose tissue (WAT) inducers. Scale bar: 100 μM
FIG. 8C is an image of Oil Red O staining of differentiated SVF cells treated with a vehicle or compound GD (0.1 μM) in the presence of white adipose tissue (WAT) inducers. Scale bar: 400 μM for the top 2 images, and 100 μM for the bottom two images.
Beige cells are associated with protection against obesity and metabolic syndrome (WO 2017/161253). Accordingly, compound GD and related compounds of the invention can be used for treating obesity and related metabolic diseases.

[4] = system: phosphorylated pRB at SER-780 in HELA cells; assay: Immunoblot of phosphorylated pRB (SER-780), HELA
Experimental: FIG. 5E is an image of a representative immunoblot showing the levels of phosphorylated pRB at SER-780 in HELA cells following treatment of these cells with a vehicle, PD, or compound GD for 24 hours. Tubulin was used as loading control.
as §1

## CC(=O)c1c(C)c2cnc(Nc3nc(CN4CCNCC4)cs3)nc2[nH]c1=O [Compound GD, 6-acetyl-5-methyl-2-((4-(piperazin-1-ylmethyl)thiazol-2-yl)amino)pyrido[2,3-d]pyrimidin-7(8H)-one]
[1]; 6 days, GD 1-20 μM, PD 0.5 μM
  proliferation of CDK6−/− MEFs: little effect
[1]; concluded from WT versus CDK6−/− MEFs and SVFs
  preference for CDK6 over CDK4: preferentially inhibits CDK6 over CDK4
[2]; Pancreas Cancer: HPAC, WB and PI staining
  Compound GD Efficacy: Efficacious
[2]; pancreas adenocarcinoma (HPAC-1), 24 hours
  pRB phosphorylation: inhibits pRB phosphorylation
[3]; GD 0.1 μM, FIG. 8C
  white adipocyte formation: inhibited white adipocyte formation
[3]; GD 5 μM, FIG. 8A
  white adipocyte formation: inhibited white adipocyte formation
[4]; Cervical Cancer: Hela, WB: P-RB-780
  Compound GD Efficacy: Efficacious
[4]; cervical cancer cell line (Hela cells), 24 hours
  pRB phosphorylation: inhibits pRB phosphorylation
